One may read the IC50 as the concentration that inhibits the measured activity by half.

In this experiment the test system is Ha-CoV-2(Luc). The experiment can be described thus: microbe, parasite or virus in culture. The experiment is classed as cell-based, SARS-CoV-2. The conditions noted are these: Severe acute respiratory syndrome coronavirus 2, HEK-293T, read-out: IC50 (inhibition of Ha-CoV-2(Luc) infection).

Take `CCOC(=O)c1c(CSc2ccccc2)n(C)c2cc(Br)c(O)c(CN(C)C)c12` [Arbidol, Arbidol (Umifenovir)]: the IC50 was found to be 16 µM.

(Values after patent US11473064B2, “Hybrid alphavirus-SARS-CoV-2 particle and methodology of making and using same” (GEORGE MASON RESEARCH FOUNDATION, INC., priority 2020, dated 2022).)
